Experimental data as given in a compilation of properties of binary mixtures (doi:10.1021/je0498457).

Experiment: excess molar enthalpy (molar enthalpy of mixing); xn = mol fraction of the nth substance listed
Settings: 100 kPa

C1CCOCC1 + CCCCO
excess molar enthalpy [kcal/mol]
Settings	283.15 K	298.15 K	313.15 K
x1 = 0.04	0.0282	0.0299	0.0284
x1 = 0.09	0.0574	0.0614	0.0617
x1 = 0.188	0.108	–	0.124
x1 = 0.288	0.15	0.165	0.176
x1 = 0.39	0.182	0.201	0.215
x1 = 0.49	0.199	–	0.234
x1 = 0.593	0.204	0.223	–
x1 = 0.694	0.192	–	0.218
x1 = 0.796	0.159	0.167	0.171
x1 = 0.901	0.0963	0.0985	0.0975
x1 = 0.952	0.0528	0.0531	0.0516
